The results in this text go back to patent US7049292B2, “Therapeutically effective peptides related to preproinsulin” (King's College London, priority 2004, dated 2006).

For assay [1], the system named is pathogenic (IFN-γ) CD4+ T lymphocytes in PBMCs. The experiment in a line: IFN-γ ELISPOT analysis of PBMCs cultured with peptide. It counts as cell-based, human. Conditions: for Prevalence of IFN-γ responses, Totals (%) / Prevalence of IFN-γ responses, Totals (responders/tested): positive response SI≧3.0; for IFN-γ response, stimulation index (SI): PBMCs, peptide 10 μM.

Assay [2] relates to anti-inflammatory (IL-10 secreting) CD4+ T lymphocytes in PBMCs. It counts as cell-based, human. The conditions noted are these: for IL-10 response, stimulation index (SI): PBMCs, peptide 10 μM.
Setting [3] is: T1DM patients with HLA-DR4 alleles.
Setting [4] is: T1DM patients with non-DR4 alleles.
The mark [5] stands for this setting: patient #3, T1DM with HLA-DR4 alleles.
The mark [6] stands for this setting: patient #10, T1DM with HLA-DR4 alleles.
Setting [7] is: patient #12, T1DM with HLA-DR4 alleles.
[8] abbreviates: patient #13, T1DM with HLA-DR4 alleles.
Setting [9] is: patient #19, T1DM with HLA-DR4 alleles.
Setting [10] is: patient #26, T1DM with non-DR4 alleles.
[11] abbreviates: non-diabetic control subject C8.
Where [12] appears, read: patient #24, T1DM with HLA-DR4 alleles.
The mark [13] stands for this setting: patient #27, T1DM with non-DR4 alleles.
Setting [14] is: patient #35, T1DM with non-DR4 alleles.
[15] abbreviates: patient #6, T1DM with HLA-DR4 alleles.
Where [16] appears, read: non-diabetic control subject C4.
[17] abbreviates: non-diabetic control subject C13.
Where [18] appears, read: non-diabetic control subjects, positive response SI≧3.0.
[19] abbreviates: patient #5, T1DM with HLA-DR4 alleles.
Setting [20] is: patient #4, T1DM with HLA-DR4 alleles.
Where [21] appears, read: patient #30, T1DM with non-DR4 alleles.
Where [22] appears, read: patient #9, T1DM with HLA-DR4 alleles.
Where [23] appears, read: non-diabetic control subject C5.
[24] abbreviates: patient #28, T1DM with non-DR4 alleles.
Where [25] appears, read: patient #29, T1DM with non-DR4 alleles.

“And” between values parts separate entries of the source, which are not always exact repeats. Identical values can stand only once. Like-named read-outs stand apart in the source and are kept apart here. Ends that are not written are not given here.

Turning to “KLKVESSPSRSDYINASPIIEHDP [752–75, IA-2 peptide eluted from HLA-DR4]”, the “Prevalence of IFN-γ responses, Totals (%)” value (shortened to “Prevalence … (%)”) in assay [1] (setting [3]) is recorded as “(32) %”; in assay [1] (setting [4]) it was “(9) %”; in assay [1] (non-diabetic control subjects), “(0) %”. The “Prevalence of IFN-γ responses, Totals (responders/tested)” value in assay [1] (setting [3]) was 8/25; in assay [1] (setting [4]) it was 1/11; in assay [1] (non-diabetic control subjects), 0/14. For the same substance, the “IFN-γ response, stimulation index (SI)” value in assay [1] (setting [5]) is recorded as 4.3; in assay [1] (setting [6]) it was 12.3; in assay [1] (setting [7]), 3.3; in assay [1] (setting [8]) it was 3.4; in assay [1] (setting [9]), 7.0; in assay [1] (patient #20, T1DM with HLA-DR4 alleles), 3.9. Further, the “IFN-γ response, stimulation index (SI)” value in assay [1] (patient #23, T1DM with HLA-DR4 alleles) stood at 3.6; in assay [1] (setting [10]), 3.0. Besides, the “Prevalence of IL-10 responses, Totals (responders/tested)” value in assay [2] (T1DM patients with HLA-DR4 alleles, positive response SI≧3.0) is 3/17; in assay [2] (listed as 725–75) it was 2/7 and 2/14. Moreover, the “IL-10 response, stimulation index (SI)” value in assay [2] (non-diabetic control subject C3) was 8.7; in assay [2] (setting [11]), 16.0; in assay [2] (setting [5]) it was 16.0; in assay [2] (setting [7]), 3.79; in assay [2] (setting [12]) it was 15.0; in assay [2] (setting [13]) it was 33.0. In assay [2] (setting [14]), the “IL-10 response, stimulation index (SI)” value worked out at 4.0.

As for “LAKEWQALCAYQAEPNTCATAQGEGNIK [709–36, IA-2 peptide eluted from HLA-DR4]”, the “Prevalence … (%)” value in assay [1] (setting [3]) is reported as “(12) %”; in assay [1] (setting [4]), “(0) %”; in assay [1] (non-diabetic control subjects), “(0) %”. The “Prevalence of IFN-γ responses, Totals (responders/tested)” value in assay [1] (setting [3]) was 3/25; in assay [1] (setting [4]) it was 0/11; in assay [1] (non-diabetic control subjects), 0/14. Besides, the “IFN-γ response, stimulation index (SI)” value in assay [1] (setting [15]) is 9.2; in assay [1] (setting [9]) it was 5.0; in assay [1] (setting [12]), 10.5. Besides, the “Prevalence of IL-10 responses, Totals (responders/tested)” value in assay [2] is 2/17 and 1/7; in assay [2] (setting [18]), 3/14. Besides, the “IL-10 response, stimulation index (SI)” value in assay [2] (setting [16]) was 3.6; in assay [2] (non-diabetic control subject C6), 3.2; in assay [2] (setting [17]), 3.8; in assay [2] (setting [19]), 3.5; in assay [2] (setting [12]) it was 9.0; in assay [2] (setting [13]), 7.0.

With “955–76: IA-2 peptide sequence, residues 955–76 (SKDQFEFALTAVAEEVNAILKA; UniProt Q16849 955-976, looked up, fragment)”, the “Prevalence … (%)” value in assay [1] (setting [3]) was “(16) %”; in assay [1] (setting [4]), “(18) %”; in assay [1] (non-diabetic control subjects) it was “(0) %”. For the same substance, the “Prevalence of IFN-γ responses, Totals (responders/tested)” value in assay [1] (setting [3]) is listed as 4/25; in assay [1] (setting [4]) it was 2/11; in assay [1] (non-diabetic control subjects) it was 0/14. Moreover, the “IFN-γ response, stimulation index (SI)” value in assay [1] (setting [5]) is reported as 4.7; in assay [1] (setting [20]), 3.0; in assay [1] (setting [15]), 11.2; in assay [1] (setting [9]), 3.0; in assay [1] (setting [12]) it was 38.0; in assay [1] (setting [10]), 5.0. For the same substance, the “IFN-γ response, stimulation index (SI)” value in assay [1] (setting [21]) came to 4.7. Moreover, the “Prevalence of IL-10 responses, Totals (responders/tested)” value in assay [2] was 2/17 and 1/7; in assay [2] (setting [18]), 3/14. In addition, the “IL-10 response, stimulation index (SI)” value in assay [2] (setting [16]) stood at 5.6; in assay [2] (setting [11]) it was 15.0; in assay [2] (non-diabetic control subject C11), 5.2; in assay [2] (setting [5]), 3.0; in assay [2] (setting [12]), 29.5; in assay [2] (setting [13]), 4.0.

Turning to “SFYLKNVQTQETRTLTQFHF [853–72, IA-2 peptide eluted from HLA-DR4]”, the “Prevalence … (%)” value in assay [1] (setting [3]) was “(28) %”; in assay [1] (setting [4]), “(18) %”; in assay [1] (non-diabetic control subjects) it was “(7) %”. Also, the “Prevalence of IFN-γ responses, Totals (responders/tested)” value is 7/25 in assay [1] (setting [3]), 2/11 in assay [1] (setting [4]) and 1/14 in assay [1] (non-diabetic control subjects). Also, the “IFN-γ response, stimulation index (SI)” value turned out to be 4.7 in assay [1] (non-diabetic control subject C9); 10.0 in assay [1] (patient #1, T1DM with HLA-DR4 alleles); 10 in assay [1] (setting [5]); 6.6 in assay [1] (setting [15]); 5.2 in assay [1] (setting [22]); 3.6 in assay [1] (setting [8]). Moreover, the “IFN-γ response, stimulation index (SI)” value in assay [1] (setting [12]) turned out to be 48.3; in assay [1] (setting [13]) it was 3.1; in assay [1] (patient #34, T1DM with non-DR4 alleles), 3.7. In addition, the “Prevalence of IL-10 responses, Totals (responders/tested)” value in assay [2] is 2/17 and 2/7 and 2/14. Also, the “IL-10 response, stimulation index (SI)” value in assay [2] (setting [23]) is recorded as 4.7; in assay [2] (setting [11]), 66.0; in assay [2] (setting [15]), 4.3; in assay [2] (setting [12]), 9.0; in assay [2] (setting [13]) it was 20.0; in assay [2] (setting [14]) it was 9.6.

As to QPLALEGSLQKRGIVEQ [C22-A5], the results for the “Prevalence … (%)” value in assay [1] (setting [3]), in assay [1] (setting [4]) and in assay [1] (non-diabetic control subjects) were “(18) %”, “(25) %” and “(0) %”, respectively. Further, the “Prevalence of IFN-γ responses, Totals (responders/tested)” value was 3/17 in assay [1] (setting [3]), 2/8 in assay [1] (setting [4]) and 0/14 in assay [1] (non-diabetic control subjects). Further, the “IFN-γ response, stimulation index (SI)” value is on record as 3.7 in assay [1] (setting [19]); 22.0 in assay [1] (setting [15]); 3.3 in assay [1] (setting [8]); 5.8 in assay [1] (setting [24]); 4.0 in assay [1] (setting [25]). The “Prevalence of IL-10 responses, Totals (responders/tested)” value in assay [2] was 1/12 and 1/5 and 1/13. Further, the figures for the “IL-10 response, stimulation index (SI)” value in assay [2] (setting [17]), in assay [2] (setting [5]) and in assay [2] (setting [13]) were 4.3, 7.36 and 3.0, respectively.

On to GSLQPLALEGSLQKRGIV [C19-A3], for which the “Prevalence … (%)” value is “(47) %” in assay [1] (setting [3]), “(38) %” in assay [1] (setting [4]) and “(0) %” in assay [1] (non-diabetic control subjects). The “Prevalence of IFN-γ responses, Totals (responders/tested)” value in assay [1] (setting [3]) is 8/17; in assay [1] (setting [4]), 3/8; in assay [1] (non-diabetic control subjects) it was 0/14. Further, the “IFN-γ response, stimulation index (SI)” value is 10.7 in assay [1] (setting [5]); 3.5 in assay [1] (setting [20]); 63.6 in assay [1] (setting [15]); 3.0 in assay [1] (patient #8, T1DM with HLA-DR4 alleles); 4.6 in assay [1] (setting [22]); 5.0 in assay [1] (setting [6]). The “IFN-γ response, stimulation index (SI)” value was determined as 3.3 in assay [1] (patient #11, T1DM with HLA-DR4 alleles); 10.7 in assay [1] (setting [7]); 3.3 in assay [1] (setting [10]); 5.0 in assay [1] (setting [24]); 5.7 in assay [1] (setting [21]). Moreover, the “Prevalence of IL-10 responses, Totals (responders/tested)” value was 1/12 and 2/5 in assay [2]; 3/13 in assay [2] (setting [18]). In addition, the “IL-10 response, stimulation index (SI)” value in assay [2] (setting [23]) is 10.3; in assay [2] (setting [11]) it was 29.0; in assay [2] (setting [17]), 5.0; in assay [2] (setting [5]) it was 10.21; in assay [2] (setting [13]), 7.0; in assay [2] (patient #33, T1DM with non-DR4 alleles), 3.1.

On to “GGGPGAGSLQPLALEGSLQK [C13-C32, preproinsulin peptide, residues C13-C32]”, for which the “Prevalence … (%)” value was “(12) %” in assay [1] (setting [3]), “(25) %” in assay [1] (setting [4]) and “(0) %” in assay [1] (non-diabetic control subjects). Besides, the “Prevalence of IFN-γ responses, Totals (responders/tested)” value was 2/17 in assay [1] (setting [3]), 2/8 in assay [1] (setting [4]) and 0/14 in assay [1] (non-diabetic control subjects). The “IFN-γ response, stimulation index (SI)” value in assay [1] (setting [19]) worked out at 3.8; in assay [1] (setting [15]) it was 8.6; in assay [1] (setting [24]) it was 11.5; in assay [1] (setting [25]), 4.7. In addition, the “Prevalence of IL-10 responses, Totals (responders/tested)” value in assay [2] (listed as C13–32) is 1/12 and 1/5 and 1/13.
